Measured values as given in patent US9540343B2 (Gilead Sciences, Inc., priority 2011, dated 2017).

Tests used:
[1] = system: HIV-IIIb; test: Test A: Antiviral assay in MT4 cells; format: cell-based, HIV-1; settings: Human immunodeficiency virus 1, IIIB, MT4, 120 h, read-out: % inhibition at 2 μM, percent inhibition of virus-induced cell killing, from dose response curve at 2 uM drug; MT-4 cells infected with HIV-IIIb, 5 days, CellTiter-Glo
[2] = in vitro; settings: human, uninfected MT-4 cells, CC50 (nM), same protocol as Test A, CellTiter-Glo
In short: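 Cytoprotection read-out: CellTiter-Glo chemiluminescence after 5 days at 37 °C of HIV-IIIb-infected MT-4 cells (m.o.i. 0.003) with compound in 10-point 3-fold dilutions, quadruplicate, 10% FBS. Cytotoxicity (CC50) measured identically without virus.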

| Compound | inhibition at 2 µM [1] | CC50 at 5 days [2] |
| --- | --- | --- |
| O=C(Cn1nc(C(F)F)c2c1C(F)(F)C1CC21)N[C@@H](Cc1cc(F)cc(F)c1)c1ncccc1-c1cncc2ccccc12 (stereo partly drawn) [Example 120, 2-(3-(difluoromethyl)-5,5-difluoro-3b,4,4a,5-tetrahydro-1H-cyclopropa[3,4]cyclopenta[1,2-c]pyrazol-1-yl)-N—((S)-2-(3,5-difluorophenyl)-1-(3-(isoquinolin-4-yl)pyridin-2-yl)ethyl)acetamide] | 73% | 13800 nM |
| O=C(Cn1nc(C(F)(F)F)c2c1COCC2)N[C@@H](Cc1cc(F)cc(F)c1)c1ncccc1-c1ccc(Cl)cc1 [Example 121, (S)—N-(1-(3-(4-chlorophenyl)pyridin-2-yl)-2-(3,5-difluorophenyl)ethyl)-2-(3-(trifluoromethyl)-4,5-dihydropyrano[3,4-c]pyrazol-1(7H)-yl)acetamide] | 68% | 9100 nM |
| NC(=O)c1cc(-c2cccnc2[C@H](Cc2cc(F)cc(F)c2)NC(=O)Cn2[nH]c(=O)c3c2CCCC3)ccc1F [Example 123E, (S)-5-(2-(2-(3,5-difluorophenyl)-1-(2-(3-oxo-2,3,4,5,6,7-hexahydro-1H-indazol-1-yl)acetamido)ethyl)pyridin-3-yl)-2-fluorobenzamide] | 84% | > 53200 nM |
| O=C(Cn1nc(C(F)F)c2c1C(F)(F)C1CC21)N[C@@H](Cc1cc(F)cc(F)c1)c1ncncc1-c1ccc2cccnc2c1 (stereo partly drawn) [Example 124C, 2-(3-(difluoromethyl)-5,5-difluoro-3b,4,4a,5-tetrahydro-1H-cyclopropa[3,4]cyclopenta[1,2-c]pyrazol-1-yl)-N—((S)-2-(3,5-difluorophenyl)-1-(5-(quinolin-7-yl)pyrimidin-4-yl)ethyl)acetamide] | 77% | 20200 nM |
| NC(=O)c1cc(-c2cccnc2[C@H](Cc2cc(F)cc(F)c2)NC(=O)[C@H]2CCC(=O)N2)ccc1F [Example 125, (R)—N—((S)-1-(3-(3-carbamoyl-4-fluorophenyl)pyridin-2-yl)-2-(3,5-difluorophenyl)ethyl)-5-oxopyrrolidine-2-carboxamide] | 0% | > 53000 nM |
| NC(=O)c1cc(-c2cccnc2[C@H](Cc2cc(F)cc(F)c2)NC(=O)C2CCCN2C(=O)c2ccccc2)ccc1F (stereo partly drawn) [Example 126, 1-benzoyl-N—((S)-1-(3-(3-carbamoyl-4-fluorophenyl)pyridin-2-yl)-2-(3,5-difluorophenyl)ethyl)pyrrolidine-2-carboxamide] | 7% | > 53000 nM |
| O=C(Cn1nc(C(F)F)c2c1C(F)(F)C1CC21)N[C@@H](Cc1cc(F)cc(F)c1)c1ncncc1-c1cccc2[nH]cnc12 (stereo partly drawn) [Example 127C, N—((S)-1-(5-(1H-benzo[d]imidazol-4-yl)pyrimidin-4-yl)-2-(3,5-difluorophenyl)ethyl)-2-(3-(difluoromethyl)-5,5-difluoro-3b,4,4a,5-tetrahydro-1H-cyclopropa[3,4]cyclopenta[1,2-c]pyrazol-1-yl)acetamide] | 97% | 31900 nM |
| CCOC(=O)N1CCCC1C(=O)N[C@@H](Cc1cc(F)cc(F)c1)c1ncccc1-c1ccc(F)c(C(N)=O)c1 (stereo partly drawn) [Example 128, ethyl 2-((S)-1-(3-(3-carbamoyl-4-fluorophenyl)pyridin-2-yl)-2-(3,5-difluorophenyl)ethylcarbamoyl)pyrrolidine-1-carboxylate] | 7% | 23500 nM |
| NC(=O)c1cc(-c2cccnc2[C@H](Cc2cc(F)cc(F)c2)NC(=O)Cn2nc(C(F)(F)OCc3ccccn3)c3c2CCCC3)ccc1OCc1ccccn1 [Example 129, (S)-5-(2-(1-(2-(3-(difluoro(pyridin-2-ylmethoxy)methyl)-4,5,6,7-tetrahydro-1H-indazol-1-yl)acetamido)-2-(3,5-difluorophenyl)ethyl)pyridin-3-yl)-2-(pyridin-2-ylmethoxy)benzamide] | 0% | 10200 nM |
| NC(=O)c1cc(-c2cccnc2[C@H](Cc2cc(F)cc(F)c2)NC(=O)Cn2nc(C(F)(F)F)cc2C2=CCCC2)ccc1F [Example 130D, (S)-5-(2-(1-(2-(5-cyclopentenyl-3-(trifluoromethyl)-1H-pyrazol-1-yl)acetamido)-2-(3,5-difluorophenyl)ethyl)pyridin-3-yl)-2-fluorobenzamide] | 39% | 15800 nM |
| O=C(Cn1nc(C(F)F)c2c1C(F)(F)C1CC21)N[C@@H](Cc1cc(F)cc(F)c1)c1ncncc1-c1ccc2cnccc2c1 (stereo partly drawn) [Example 131C, 2-(3-(difluoromethyl)-5,5-difluoro-3b,4,4a,5-tetrahydro-1H-cyclopropa[3,4]cyclopenta[1,2-c]pyrazol-1-yl)-N—((S)-2-(3,5-difluorophenyl)-1-(5-(isoquinolin-6-yl)pyrimidin-4-yl)ethyl)acetamide] | 47% | 10400 nM |
| CC(C)(C)OC(=O)N1C[C@H](O)C[C@H]1C(=O)N[C@@H](Cc1cc(F)cc(F)c1)c1ncccc1-c1ccc(F)c(C(N)=O)c1 [Example 132, (2S,4R)-tert-butyl 2-((S)-1-(3-(3-carbamoyl-4-fluorophenyl)pyridin-2-yl)-2-(3,5-difluorophenyl)ethylcarbamoyl)-4-hydroxypyrrolidine-1-carboxylate] | 7% | 22300 nM |
| CC(C)(C)OC(=O)N1CCOC[C@@H]1C(=O)N[C@@H](Cc1cc(F)cc(F)c1)c1ncccc1-c1ccc(F)c(C(N)=O)c1 [Example 133, (R)-tert-butyl 3-((S)-1-(3-(3-carbamoyl-4-fluorophenyl)pyridin-2-yl)-2-(3,5-difluorophenyl)ethylcarbamoyl)morpholine-4-carboxylate] | 1% | > 53000 nM |
| NC(=O)c1cc(-c2cccnc2[C@H](Cc2cc(F)cc(F)c2)NC(=O)Cn2nc(C(F)(F)OCc3ccccn3)c3c2CCCC3)ccc1F [Example 135, (S)-5-(2-(1-(2-(3-(difluoro(pyridin-2-ylmethoxy)methyl)-4,5,6,7-tetrahydro-1H-indazol-1-yl)acetamido)-2-(3,5-difluorophenyl)ethyl)pyridin-3-yl)-2-fluorobenzamide] | 53% | 21100 nM |
| NC(=O)c1cc(-c2cncnc2[C@H](Cc2cc(F)cc(F)c2)NC(=O)Cn2nc(C(F)(F)F)c3c2CC2CC32)ccc1F (stereo partly drawn) [Example 136D, 5-(4-((1S)-2-(3,5-difluorophenyl)-1-(2-(3-(trifluoromethyl)-3b,4,4a,5-tetrahydro-1H-cyclopropa[3,4]cyclopenta[1,2-c]pyrazol-1-yl)acetamido)ethyl)pyrimidin-5-yl)-2-fluorobenzamide] | 88% | 27800 nM |
| CC(C)(C)OC(=O)N1CC(=O)C[C@H]1C(=O)N[C@@H](Cc1cc(F)cc(F)c1)c1ncccc1-c1ccc(F)c(C(N)=O)c1 [Example 137, (S)-tert-butyl 2-((S)-1-(3-(3-carbamoyl-4-fluorophenyl)pyridin-2-yl)-2-(3,5-difluorophenyl)ethylcarbamoyl)-4-oxopyrrolidine-1-carboxylate] | 1% | 21700 nM |
| NC(=O)c1cc(-c2cccnc2[C@H](Cc2cc(F)cc(F)c2)NC(=O)Cn2nc(C(F)(F)F)cc2C2CC2)ccc1F [Example 138, (S)-5-(2-(1-(2-(5-cyclopropyl-3-(trifluoromethyl)-1H-pyrazol-1-yl)acetamido)-2-(3,5-difluorophenyl)ethyl)pyridin-3-yl)-2-fluorobenzamide] | 30% | 24500 nM |
